Values quoted from earlier work, collected in patent US20190274302A1, “COMPOSITIONS FOR ACTIVE TREATING AND […] DISEASES” (priority 2018, published 2019).
Read-outs that look alike come from different tables or passages of the source.

Row | Compound | pH (1 mM) | pH (10 mM) | pH (100 mM)
1 | O=C(O)/C=C(\CC(=O)O)C(=O)O [trans-aconitic acid] | 3.14 | 2.48 | 1.92
2 | O=CO [formic acid] | 3.47 | 2.91 | 2.38
3 | CC(=O)O [acetic acid] | 3.91 | 3.39 | 2.88
4 | O=C(O)CC(O)(CC(=O)O)C(=O)O [citric acid] | 3.24 | 2.62 | 2.08
5 | O=C(O)/C=C(/CC(=O)O)C(=O)O [cis-aconitic acid] | 3.05 | 2.21 | 1.55
6 | O=C(O)c1ccccc1 [benzoic acid] | 3.66 | 3.12 | 2.60
7 | Oc1ccccc1 [phenol] | 6.47 | 5.99 | 5.49
8 | CCC(=O)O [propanoic acid] | 3.96 | 3.44 | 2.94

Second part, the compound after the results:

Row | pH (1 mM) | pH (10 mM) | pH (100 mM) | Compound
9 | 3.51 | 2.96 | 2.44 | CC(O)C(=O)O (stereo not drawn) [lactic acid]
10 | 3.21 | 2.57 | 2.02 | O=C(O)c1ccccc1O [salicylic acid]
11 | 3.17 | 2.50 | 1.94 | O=C(O)CC(=O)O [malonic acid]
12 | 3.33 | 2.74 | 2.21 | O=C(O)CC(O)C(=O)O (stereo not drawn) [malic acid]
13 | 3.59 | 3.04 | 2.53 | O=C1O[C@H]([C@@H](O)CO)C(O)=C1O [ascorbic acid]
14 | 3.00 | 2.09 | 1.31 | O=C(O)C(=O)O [oxalic acid]
